# Residues, ends and D or L forms follow the SMILES beside them. *: point of attachment. DOTA = O=C(O)CN1CCN(CC(=O)O)CCN(CC(=O)*)CCN(CC(=O)O)CC1; X1 = Cc1ccc(CCCC(=O)NCCOCCOCCOCCOCC(=O)*)cc1; βAla = NCCC(=O)O
# Test: in vivo
# Set-up: species or system mice
# Details: male, SCID, mouse, iv, total radioactivity; for tissue uptake at 48 h / tissue uptake at 72 h: Biodistribution
# Procedure: The distribution of [^67Ga]Ga/[^111In]In/[^177Lu]Lu-DT14D was investigated in male severe combined immunodeficiency (SCID) mice (49 mice in total, 6 weeks of age on arrival date, 22 ± 4 g, NCSR “Demokritos” Animal House, Athens, Greece) bearing NTS1R-positive AsPC-1 xenografts in their flanks. For xenograft induction, suspensions of freshly harvested AsPC-1 cells (5 × 10^6 cells in 150 µL sterile PBS) were subcutaneously injected into the mice’s flanks. The animals were kept under aseptic conditions and 4 weeks later developed well palpable masses at the inoculation sites (100 ± 50 mg) and biodistribution was conducted. On the day of the experiment, the animals received a bolus (100 μL, in vehicle: saline/EtOH 9/1 v/v) containing the radioligand via the tail vein. The following groups of four animals per time point, per treatment, were included per radioligand (the 4 h block groups comprised 3 animals instead) including the respective (radio)ligand amounts injected: i. 78–91 kBq [^67Ga]Ga-DT14D corresponding to 7–17 pmol DT14D at 1 and 4 h pi plus 4 h block (coinjection with 100 µg NT); ii. 74–92 kBq [^111In]In-DT14D corresponding to 20–25 pmol at 4 h (controls), 4 h pi (Entresto®; animals receiving a slurry of 12 mg/200 µL Entresto® oral gavage 30 min in advance) and 4 h block (coinjection with 100 µg NT); 24 h pi (including both controls and Entresto® mice groups); and iii. 730 kBq [^177Lu]Lu-DT14D corresponding to 40 pmol DT14D at 4, 24, 48, and 72 h pi plus 4 h block (co-injection with 100 µg NT). The animals were euthanized at predetermined time intervals, dissected and blood samples, organs of interest, and tumors were collected, weighed, and counted in the gamma counter. Biodistribution data were calculated as percent of the injected activity per gram tissue (%IA/g) with the aid of suitable standards of the administered activity. Results as the mean %IA/g values ± sd were obtained and statistical analysis was performed with PRISM^TM GraphPad—10.2 Software (San Diego, CA/USA), applying 2-way ANOVA with Tukey’s post hoc analysis, or, in the case of two variables, Šídák’s multiple comparisons test was adopted; differences with p < 0.05 were considered as statistically significant.
# [1] = 730 kBq, Tumor/Intestines ratio
structure (smiles),measurement,setting,value
"CC[C@H](C)[C@H](NC(=O)[C@H](Cc1ccc(O)cc1)NC(=O)[C@@H]1CCCN1C(=O)[C@H](CCCNC(=N)N)NC(=O)[C@H](CCCNC(=N)N)NC(=O)[C@H](CCCCNC(=O)COCCOCCOCCOCCNC(=O)CCCc1ccc(C)cc1)NC(=O)CCNC(=O)CCNC(=O)CCNC(=O)CN1CCN(CC(=O)O)CCN(CC(=O)O)CCN(CC(=O)O)CC1)C(=O)N[C@@H](CC(C)C)C(=O)O [[^177Lu]Lu-DT14D, metal not drawn] ({DOTA-βAla-βAla-βAla}-K(X1)RRPYIL-OH)",tissue to tissue ratio at 72 h,"40 pmol, Tumor/Blood ratio",29.8 ± 7.43
same,tissue to tissue ratio at 48 h,"40 pmol, Tumor/Liver ratio",1.63 ± 0.14
same,tissue to tissue ratio at 72 h,"40 pmol, Tumor/Liver ratio",1.44 ± 0.19
same,tissue to tissue ratio at 48 h,"40 pmol, Tumor/Lungs ratio",11.4 ± 1
same,tissue to tissue ratio at 72 h,"40 pmol, Tumor/Lungs ratio",9.66 ± 1.43
same,tissue to tissue ratio at 48 h,"40 pmol, Tumor/Pancreas ratio",20.4 ± 1.96
same,tissue to tissue ratio at 72 h,"40 pmol, Tumor/Pancreas ratio",16.2 ± 5.04
same,tissue uptake at 48 h,"730 kBq, AsPC-1 Tumor",1.56 ± 0.17 %ID/g
same,tissue uptake at 72 h,"730 kBq, AsPC-1 Tumor",1.24 ± 0.2 %ID/g
same,tissue uptake at 48 h,"730 kBq, Blood",0.05 ± 0.01 %ID/g
same,tissue uptake at 72 h,"730 kBq, Blood",0.04 %ID/g
same,tissue uptake at 48 h,"730 kBq, Femur",0.38 ± 0.03 %ID/g
same,tissue uptake at 72 h,"730 kBq, Femur",0.35 ± 0.03 %ID/g
same,tissue uptake at 48 h,"730 kBq, Heart",0.07 ± 0.01 %ID/g
same,tissue uptake at 72 h,"730 kBq, Heart",0.06 ± 0.01 %ID/g
same,tissue uptake at 48 h,"730 kBq, Intestines",0.36 ± 0.01 %ID/g
same,tissue uptake at 72 h,"730 kBq, Intestines",0.27 ± 0.02 %ID/g
same,tissue uptake at 48 h,"730 kBq, Kidneys",0.88 ± 0.06 %ID/g
same,tissue uptake at 72 h,"730 kBq, Kidneys",0.57 ± 0.15 %ID/g
same,tissue uptake at 48 h,"730 kBq, Liver",0.96 ± 0.05 %ID/g
same,tissue uptake at 72 h,"730 kBq, Liver",0.86 ± 0.1 %ID/g
same,tissue uptake at 48 h,"730 kBq, Lungs",0.14 %ID/g
same,tissue uptake at 72 h,"730 kBq, Lungs",0.13 ± 0.04 %ID/g
same,tissue uptake at 48 h,"730 kBq, Muscle",0.04 ± 0.01 %ID/g
same,tissue uptake at 72 h,"730 kBq, Muscle",0.04 ± 0.02 %ID/g
same,tissue uptake at 48 h,"730 kBq, Pancreas",0.07 ± 0.01 %ID/g
same,tissue uptake at 72 h,"730 kBq, Pancreas",0.08 ± 0.02 %ID/g
same,tissue uptake at 48 h,"730 kBq, Spleen",1.6 ± 0.58 %ID/g
same,tissue uptake at 72 h,"730 kBq, Spleen",1.49 ± 0.51 %ID/g
same,tissue uptake at 48 h,"730 kBq, Stomach",0.07 ± 0.01 %ID/g
same,tissue uptake at 72 h,"730 kBq, Stomach",0.04 ± 0.01 %ID/g
same,tissue to tissue ratio at 48 h,"730 kBq, Tumor/Blood ratio",30.9 ± 3.67
same,tissue to tissue ratio at 48 h,"730 kBq, Tumor/Heart ratio",23 ± 2.32
same,tissue to tissue ratio at 72 h,"730 kBq, Tumor/Heart ratio",20.1 ± 3.03
same,tissue to tissue ratio at 48 h,[1],4.28 ± 0.33
same,tissue to tissue ratio at 72 h,[1],4.65 ± 0.91
same,tissue to tissue ratio at 48 h,"730 kBq, Tumor/Kidneys ratio",1.78 ± 0.3
same,tissue to tissue ratio at 72 h,"730 kBq, Tumor/Kidneys ratio",2.26 ± 0.49
same,tissue to tissue ratio at 48 h,"730 kBq, Tumor/Muscle ratio",39.2 ± 5.49
same,tissue to tissue ratio at 72 h,"730 kBq, Tumor/Muscle ratio",36.1 ± 14.6
same,tissue to tissue ratio at 48 h,"730 kBq, Tumor/Spleen ratio",1.1 ± 0.51
same,tissue to tissue ratio at 72 h,"730 kBq, Tumor/Spleen ratio",0.89 ± 0.25
same,tissue to tissue ratio at 48 h,"730 kBq, Tumor/Stomach ratio",23.8 ± 2.17
same,tissue to tissue ratio at 72 h,"730 kBq, Tumor/Stomach ratio",26.6 ± 5.58
